The target of one assay is T1, hKir2.2 (Homo sapiens, UniProt Q14500).
T1 sequence (Q14500 1-433): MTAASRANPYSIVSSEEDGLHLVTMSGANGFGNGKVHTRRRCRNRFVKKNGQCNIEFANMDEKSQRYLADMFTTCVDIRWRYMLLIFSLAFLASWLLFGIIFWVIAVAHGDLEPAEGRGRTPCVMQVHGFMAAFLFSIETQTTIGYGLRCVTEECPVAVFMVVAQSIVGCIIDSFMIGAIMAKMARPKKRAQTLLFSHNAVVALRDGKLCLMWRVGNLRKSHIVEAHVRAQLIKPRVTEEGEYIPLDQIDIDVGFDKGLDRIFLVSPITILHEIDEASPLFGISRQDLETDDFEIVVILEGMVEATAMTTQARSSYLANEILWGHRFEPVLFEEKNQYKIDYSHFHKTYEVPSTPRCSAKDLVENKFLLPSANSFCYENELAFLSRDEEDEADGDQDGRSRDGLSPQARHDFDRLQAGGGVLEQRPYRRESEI
Put plainly: whole-cell patch clamp, hyperpolarizing ramp. The assay is classed as cell-based. On the technique in general: The patch-clamp technique gives a direct electrical read-out from membranes.

Assay [1] addresses human ether‐à‐go‐go–related gene (hERG) channel (Homo sapiens, UniProt Q12809).
A further assay addresses T2, hKir2.1 (Homo sapiens, UniProt P63252).
T2 sequence (P63252 1-427): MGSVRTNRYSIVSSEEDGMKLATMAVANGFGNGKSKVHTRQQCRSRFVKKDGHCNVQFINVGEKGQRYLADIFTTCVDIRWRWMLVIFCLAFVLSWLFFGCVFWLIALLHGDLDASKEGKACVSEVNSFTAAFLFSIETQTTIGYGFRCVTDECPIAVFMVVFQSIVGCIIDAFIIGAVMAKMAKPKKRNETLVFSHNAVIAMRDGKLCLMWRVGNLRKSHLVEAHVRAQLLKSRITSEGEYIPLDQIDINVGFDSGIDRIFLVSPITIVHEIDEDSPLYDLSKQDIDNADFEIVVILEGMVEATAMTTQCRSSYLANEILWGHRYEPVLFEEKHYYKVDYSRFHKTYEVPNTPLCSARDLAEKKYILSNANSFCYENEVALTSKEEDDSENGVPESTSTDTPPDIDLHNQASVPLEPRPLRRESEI
Put plainly: whole-cell patch clamp, hyperpolarizing ramp, […] °C.

Sequence of human ether‐à‐go‐go–related gene (hERG) channel (Q12809 whole entry): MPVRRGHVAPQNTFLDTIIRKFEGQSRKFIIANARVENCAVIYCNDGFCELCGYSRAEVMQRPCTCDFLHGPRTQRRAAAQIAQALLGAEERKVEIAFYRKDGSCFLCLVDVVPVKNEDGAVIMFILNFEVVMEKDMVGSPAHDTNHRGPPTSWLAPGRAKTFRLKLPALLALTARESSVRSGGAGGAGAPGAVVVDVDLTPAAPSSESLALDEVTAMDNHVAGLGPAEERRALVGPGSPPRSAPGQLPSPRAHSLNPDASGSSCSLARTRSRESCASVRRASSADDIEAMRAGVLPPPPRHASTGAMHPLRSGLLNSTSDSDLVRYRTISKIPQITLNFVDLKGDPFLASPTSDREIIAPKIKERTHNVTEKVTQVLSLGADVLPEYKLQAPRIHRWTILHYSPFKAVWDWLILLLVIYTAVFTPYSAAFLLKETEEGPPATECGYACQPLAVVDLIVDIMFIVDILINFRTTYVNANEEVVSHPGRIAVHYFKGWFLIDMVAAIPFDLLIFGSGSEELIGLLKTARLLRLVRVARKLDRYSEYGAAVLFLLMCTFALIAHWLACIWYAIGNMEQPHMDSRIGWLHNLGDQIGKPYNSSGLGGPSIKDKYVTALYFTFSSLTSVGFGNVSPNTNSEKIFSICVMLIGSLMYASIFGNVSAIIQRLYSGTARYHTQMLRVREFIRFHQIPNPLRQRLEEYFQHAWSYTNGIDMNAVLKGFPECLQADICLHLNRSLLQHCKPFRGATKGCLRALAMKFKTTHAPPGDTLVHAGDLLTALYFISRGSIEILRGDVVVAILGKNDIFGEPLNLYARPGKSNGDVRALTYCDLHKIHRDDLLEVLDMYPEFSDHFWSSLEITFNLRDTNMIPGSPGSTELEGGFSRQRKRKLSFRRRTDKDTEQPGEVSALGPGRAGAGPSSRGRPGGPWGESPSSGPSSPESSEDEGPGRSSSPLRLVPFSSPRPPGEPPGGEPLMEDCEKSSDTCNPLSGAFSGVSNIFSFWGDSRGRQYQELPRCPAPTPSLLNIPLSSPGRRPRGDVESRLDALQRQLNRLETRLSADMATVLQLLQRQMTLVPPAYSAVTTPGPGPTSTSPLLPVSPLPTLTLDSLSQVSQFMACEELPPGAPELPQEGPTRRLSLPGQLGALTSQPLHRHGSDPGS

As usually defined, the IC50 is the concentration that gives 50% inhibition. Low values mean inhibition by little substance, high ones a need for much substance. At hKir2.2, `CN(C)C(=O)C(CCN1CCC(O)(c2ccc(Cl)cc2)CC1)(c1ccccc1)c1ccccc1` [loperamide] came in with an IC50 of 1.2 µM. Regarding `CCC(=O)C(CC(C)N(C)C)(c1ccccc1)c1ccccc1` (racemic) [methadone], the concentration for half-maximal inhibition (IC50) (in assay [1]; on hKir2.1) was 2.9 µM each time.

The record behind these values is publication PMC9238736 (Journal of the American Heart Association: Cardiovascular …, 2022).
